Test results taken from US6153589A, “2,3-epoxy alcohols, acids and derivatives as anti retroviral chemotherapeutic agents” (The United States of America as represented by the …, priority 1992, dated 2000).
Where two headings read alike, the source gives them in different places.

Columns and labels:
HIV1 IIIb = assay: microbe, parasite or virus in culture; format: cell-based; details: Human immunodeficiency virus 1, IIIB; for viability at 10 µg/mL: 10 ug/ml; for viability at 0.1 µg/mL: 0.1 ug/ml; for viability at 56.7 µg/mL: 56.7 ug/ml; for viability at 48.4 µg/mL: 48.4 ug/ml; for viability at 2.4 µg/mL: 2.4 ug/ml
Excerpt: In-vitro Screening Anti--HIV XTT Assay
This assay, which is available to the public by the National Cancer Institute, utilizes colorimetry based on the production of a colored formazin from a tetrazolium salt by viable cells, to develop a safe, rapid and quantitative measure of HIV cytopathology. The assay is a modification of the previously described screening method for the detection of anti-tumor drug cytotoxicity (D. A. Scudiero, et al, Cancer Res, 48, 4827-4833 (1988)). It involves the plating of susceptible human "host" cells with and without virus in microculture plates, adding various concentrations of the respective test compounds, incubating the plates for seven days, during which time infected, non-drug treated control cells are largely or totally destroyed by the virus. The number of remaining viable cells are determined utilizing a calorimetric endpoint. A beneficial antiviral effect is indicated by a response % grater than the virus kill %, with 100% being optimal.
Anti-viral effect: Response (Viable Cells, determined by colorometric
absorbance of formazan dye produced) as % of uninfected controls
Virus Source: HIV1 IIIb; C, Virus producing H9 cells; V, cell free virus
Virus Kill: Infected untreated cells as % of uninfected cell controls
*: Culture redosed with compound after 3 days

HIV-2 protease = assay: HIV protease cleavage of nonapeptide (HPLC); format: biochemical; details: 0.5 μl of 10 μg/μl inhibitor in DMSO per 10 μl reaction; pH 6.5, room temperature; pentapeptide product relative to DMSO control; sampled at ca. 16 and 40 hr (time not given)
Experimental: Activity Against HIV Protease
The assay for proteolyic activity is a modified version of that previously described by Copeland et al., Gene Anal. Tech., 5:109-115 (1988). For each assay to be performed 2 microliters of protease solution (ca. 100 ng) is added to 3 μg of nonapeptide (Val-Ser-Gln-Asn-Tyr-Pro-Ile-Val-Gln-NH2) in 8 μl of 200 mM sodium phosphate, 1 M NaCl, 5% glycerol, 0.25% Nonidet-40, at pH 6.5. This affords a stock solution containing 10 μl per number of reactions. This stock is aliquoted out in 10 μl portions to which 0.5 μl of DMSO (a control is run with each set of assays to compensate for minor experimental variations) or a DMSO solution containing 10 μg/μl of an inhibitor, i.e., any one of the compounds of the present invention, is added. The reactions were incubated at room temperature and 4 μl portions were removed at ca. 16 and 40 hr. intervals. HPLC analysis was performed on a 4.6×250 mm Lichrosorb RP-18 column eluted with a gradient of 0-40% acetonitrile in water (containing 0.05% TFA) over 30 min monitoring absorbance at 206 nm. Progress of the enzymatic cleavage was followed by monitoring the appearance of the pentapeptide (Val-Ser-Gln-Asn-Tyr-OH) cleavage product. The activity is expressed as the amount of the pentapeptide (Val-Ser-Gln-Asn-Tyr-OH) observed relative to the control reaction for that set of assays.
Inhibition of HIV-2 protease

porcine Renin = molecular target: T1, porcine Renin (Sus scrofa, UniProt A0A287APG1); assay: Porcine Renin cleavage of porcine tetradecapeptide (HPLC); format: biochemical; details: 0.5 μl of 50 μg/μl inhibitor in DMSO in 50 μl; pH 6.00, room temperature, 70 min; relative to uninhibited control
T1 construct: purchased Sigma
T1 sequence (A0A287APG1 24-407): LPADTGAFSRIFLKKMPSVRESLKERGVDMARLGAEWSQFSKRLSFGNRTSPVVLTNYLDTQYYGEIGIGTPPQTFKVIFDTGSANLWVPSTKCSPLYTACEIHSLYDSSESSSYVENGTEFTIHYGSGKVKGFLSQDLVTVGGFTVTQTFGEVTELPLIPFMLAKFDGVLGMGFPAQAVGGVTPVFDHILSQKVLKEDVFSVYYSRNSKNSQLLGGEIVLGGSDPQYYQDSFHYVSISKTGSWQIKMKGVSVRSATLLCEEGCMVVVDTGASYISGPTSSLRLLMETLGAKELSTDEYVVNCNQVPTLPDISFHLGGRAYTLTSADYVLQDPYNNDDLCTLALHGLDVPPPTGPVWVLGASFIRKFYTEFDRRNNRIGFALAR
Excerpt: Renin Activity: Porcine Renin Cleavage of Porcine Tetradecapeptide
Proteolytic enzymes are ubiquitous in many living systems. Renin is an asparxyl protease found in mammals which is responsible for the regulation of blood pressure. Structural and functional similarities between Renin and retroviral proteases have been previously noted (Pearl, L. H., Taylor, W. R., (1987) Nature, 329, 351-354). Consequently, successful therapeutic inhibition of retroviral proteases depends on the ability of the inhibitor to inhibit the retroviral enzyme while having a greatly diminished effect on normally occurring enzymes like Renin. The failure to inhibit the desired enzyme selectively may have an adverse effect on normal biochemical functions. The similarity of Renin to retroviral proteases and its viral normal bodily function makes it an attractive system in which to examine inhibitory selectivity.
Renin activity was determined by a method similar to that described above for the HIV protease. A solution containing 0.37 m unit (0.5 μl of stock solution containing 0.75 m unit/μl) of porcine Renin (Sigma) was added to 5 μg of porcine angiotensinogen in 50 μl of 0.1 M citrate-phosphate buffer (pH 6.00) containing 0.25% NP-40. A DMSO solution containing the inhibitor (0.5 μl of a 50 μg/μl solution) was added and the reaction was allowed to incubate at room temperature for 70 min. The entire mixture was analyzed by HPLC chromatographic analysis was perforemd on a 4.6×250 mm Lichrosorb RP-18 column eluting with a gradient of 0-50% acetonitrile in 0.02 M KH2 Po4 (pH 4.7) over 30 min monitoring absorbance at 206 nm. Appearance of both the tetrapeptide and the decapeptide products may be monitored under these conditions. Enzyme activity is expressed as the amount of tetrapeptide produced relative to an uninhibited control, and are summarized in Table 3 below.

[1] = 168 h, read-out: Antiviral Effect (viable cells as % of uninfected controls), run 6, source V (cell free virus), virus kill 26.0%

OC[C@H]1O[C@H]1COCc1ccccc1 [Example 14, (2R-cis)-3-(Benzyloxymethyl)oxirane Methanol]
viability at 1 µg/mL (HIV1 IIIb; 168 h, read-out: Antiviral Effect (viable cells as % of uninfected controls), run 6, 1 ug/ml, source V (cell free virus), virus kill 50.0%): 43.5%
viability at 10 µg/mL (HIV1 IIIb; 168 h, read-out: Antiviral Effect (viable cells as % of uninfected controls), run 7, source V (cell free virus), virus kill 50.0%): 49.5%
viability at 0.1 µg/mL (HIV1 IIIb; 168 h, read-out: Antiviral Effect (viable cells as % of uninfected controls), run 8, source V (cell free virus), virus kill 16.0%): 17.7%
viability at 0.1 µg/mL (HIV1 IIIb; 168 h, read-out: Antiviral Effect (viable cells as % of uninfected controls), run 9, source V (cell free virus), virus kill 16.0%): 20.6%
viability at 4.1 µg/mL (HIV1 IIIb; 168 h, read-out: Antiviral Effect (viable cells as % of uninfected controls), run 10, 4.1 ug/ml, source V (cell free virus), virus kill 29.0%): 28.8%
viability at 0.004 µg/mL (HIV1 IIIb; 168 h, read-out: Antiviral Effect (viable cells as % of uninfected controls), run 11*, 0.004 ug/ml, source V (cell free virus), virus kill 25.0%, culture redosed with compound after 3 days): 30%
viability at 0.1 µg/mL (HIV1 IIIb; H9, 168 h, read-out: Antiviral Effect (viable cells as % of uninfected controls), run 1, source C (virus producing H9 cells), virus kill 18.0%): 21.9%
viability at 10 µg/mL (HIV1 IIIb; H9, 168 h, read-out: Antiviral Effect (viable cells as % of uninfected controls), run 2, source C (virus producing H9 cells), virus kill 17.0%): 53.5%
viability at 10 µg/mL (HIV1 IIIb; H9, 168 h, read-out: Antiviral Effect (viable cells as % of uninfected controls), run 3, source C (virus producing H9 cells), virus kill 17.0%): 61%
viability at 0.1 µg/mL (HIV1 IIIb; H9, 168 h, read-out: Antiviral Effect (viable cells as % of uninfected controls), run 4, source C (virus producing H9 cells), virus kill 10.0%): 12.1%
viability at 10 µg/mL (HIV1 IIIb; H9, 168 h, read-out: Antiviral Effect (viable cells as % of uninfected controls), run 5, source C (virus producing H9 cells), virus kill 10.0%): 10.5%
Percent Control Cleavage of Nonapeptide HIV-1 Cleavage Site Fragment (HIV-2 protease): 78%

CCCCCCCOC[C@H]1O[C@H]1CO [Example 17]
viability at 11.3 µg/mL (HIV1 IIIb; 168 h, read-out: Antiviral Effect (viable cells as % of uninfected controls), run 4, 11.3 ug/ml, source V (cell free virus), virus kill 40.0%): 57.6%
viability at 56.7 µg/mL (HIV1 IIIb; 168 h, read-out: Antiviral Effect (viable cells as % of uninfected controls), run 5, source V (cell free virus), virus kill 57.0%): 102%
viability at 56.7 µg/mL (HIV1 IIIb; [1]): 69.2%
viability at 1.97 µg/mL (HIV1 IIIb; 168 h, read-out: Antiviral Effect (viable cells as % of uninfected controls), run 7*, 1.97 ug/ml, source V (cell free virus), virus kill 28.0%, culture redosed with compound after 3 days): 15.8%
viability at 113 µg/mL (HIV1 IIIb; H9, 168 h, read-out: Antiviral Effect (viable cells as % of uninfected controls), run 1, 113 ug/ml, source C (virus producing H9 cells), virus kill 10.0%): 31.1%
viability at 56.7 µg/mL (HIV1 IIIb; H9, 168 h, read-out: Antiviral Effect (viable cells as % of uninfected controls), run 2, source C (virus producing H9 cells), virus kill 15.0%): 53.7%
viability at 56.7 µg/mL (HIV1 IIIb; H9, 168 h, read-out: Antiviral Effect (viable cells as % of uninfected controls), run 3, source C (virus producing H9 cells), virus kill 15.0%): 83.1%
Percent Control Cleavage of Nonapeptide HIV-1 Cleavage Site Fragment (HIV-2 protease): 66%

CCCCCCCOC[C@@H]1O[C@@H]1CO [Example 18, (2R-cis)-3-(Heptyloxymethyl)oxirane Methanol]
viability at 9.65 µg/mL (HIV1 IIIb; 168 h, read-out: Antiviral Effect (viable cells as % of uninfected controls), run 4, 9.65 ug/ml, source V (cell free virus), virus kill 40.0%): 58.8%
viability at 48.4 µg/mL (HIV1 IIIb; 168 h, read-out: Antiviral Effect (viable cells as % of uninfected controls), run 5, source V (cell free virus), virus kill 63.0%): 89.8%
viability at 48.4 µg/mL (HIV1 IIIb; [1]): 49%
viability at 2.4 µg/mL (HIV1 IIIb; 168 h, read-out: Antiviral Effect (viable cells as % of uninfected controls), run 7, source V (cell free virus), virus kill 20.0%): 29.4%
viability at 2.4 µg/mL (HIV1 IIIb; 168 h, read-out: Antiviral Effect (viable cells as % of uninfected controls), run 8*, source V (cell free virus), virus kill 25.0%, culture redosed with compound after 3 days): 40.2%
viability at 96.5 µg/mL (HIV1 IIIb; H9, 168 h, read-out: Antiviral Effect (viable cells as % of uninfected controls), run 1, 96.5 ug/ml, source C (virus producing H9 cells), virus kill 11.0%): 38.6%
viability at 48.4 µg/mL (HIV1 IIIb; H9, 168 h, read-out: Antiviral Effect (viable cells as % of uninfected controls), run 2, source C (virus producing H9 cells), virus kill 16.0%): 30.7%
viability at 4.84 µg/mL (HIV1 IIIb; H9, 168 h, read-out: Antiviral Effect (viable cells as % of uninfected controls), run 3, 4.84 ug/ml, source C (virus producing H9 cells), virus kill 10.0%): 17%
Percent Control Cleavage of Nonapeptide HIV-1 Cleavage Site Fragment (HIV-2 protease): 71%

CCCCCCCCCCC[C@@H]1O[C@H]1C(=O)O [Example 39, (2R-trans)-3-Undecyloxiranecarboxylic Acid]
Percent control (tetrapeptide produced) (porcine Renin): 51%
